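Briefly, cells in 96-well plates were exposed to five compound concentrations for 48 h, and endpoints were estimated by linear interpolation. The concentration for 50% growth inhibition is given as GI50.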 The source made the active and inactive calls. Cut-off read from the data, not from the text of the source: active = GI50 up to about 1.1 µM and inactive = higher.
What was measured:
Experiment in all cases: growth of human tumour cells (NCI), 48 h
SF-539 = system: SF-539
EKVX = system: EKVX
786-0 = system: 786-0
NCI-H23 = system: NCI-H23
DU-145 = system: DU-145
U-251 = system: U-251
NCI-H522 = system: NCI-H522
OVCAR-4 = system: OVCAR-4
SW-620 = system: SW-620
MOLT-4 = system: MOLT-4
HCT-116 = system: HCT-116
NCI-H460 = system: NCI-H460
NCI/ADR-RES = system: NCI/ADR-RES
UACC-257 = system: UACC-257
UO-31 = system: UO-31
NCI-H226 = system: NCI-H226
OVCAR-8 = system: OVCAR-8
ACHN = system: ACHN
A498 = system: A498

Measured: GI50

COC(=O)C1=C(C(=O)OC)C(OO)(c2ccccc2)OC1=O (stereo not given)
inactive: SF-539 33.3 µM | EKVX > 100 µM | 786-0 36.5 µM | NCI-H23 > 100 µM | DU-145 > 100 µM | U-251 37.4 µM | NCI-H522 60.7 µM | OVCAR-4 > 100 µM | SW-620 > 100 µM | MOLT-4 > 100 µM | HCT-116 61.7 µM | NCI-H460 48.6 µM | NCI/ADR-RES > 100 µM | UACC-257 > 100 µM | UO-31 > 100 µM | NCI-H226 > 100 µM | OVCAR-8 > 100 µM | ACHN > 100 µM

CC1=Nc2c(O)nc(S)nc2NC(c2ccc(Cl)c(Cl)c2)C1 (stereo not given)
inactive: SF-539 21.1 µM | EKVX 28.9 µM | 786-0 17.7 µM | NCI-H23 19.4 µM | U-251 17.3 µM | NCI-H522 74.3 µM | OVCAR-4 25.5 µM | SW-620 23.5 µM | MOLT-4 > 100 µM | HCT-116 15.8 µM | NCI-H460 67.8 µM | UACC-257 21 µM | A498 18.9 µM | UO-31 29.9 µM | NCI-H226 22.6 µM | OVCAR-8 18.7 µM | ACHN > 65.2 µM

O=C(O)c1ccccc1C1c2ccccc2Oc2ccccc21
inactive: EKVX 49.2 µM | 786-0 49.5 µM | NCI-H23 39.7 µM | DU-145 46.7 µM | U-251 35.2 µM | NCI-H522 26.8 µM | OVCAR-4 69.7 µM | SW-620 > 100 µM | MOLT-4 38.9 µM | HCT-116 45.3 µM | NCI-H460 39.9 µM | NCI/ADR-RES 59.7 µM | UACC-257 > 100 µM | A498 27.7 µM | UO-31 65.8 µM | NCI-H226 16.4 µM | OVCAR-8 96.6 µM | ACHN 34.6 µM

CC(C)CCC[C@@H](C)[C@H]1CC[C@H]2C3=C[C@H](OS(=O)(=O)O)[C@@]4(O)C[C@@H](O)CC[C@]4(C)[C@@]3(O)CC[C@]12C
inactive: SF-539 > 100 µM | EKVX > 100 µM | 786-0 > 100 µM | NCI-H23 > 100 µM | DU-145 > 100 µM | U-251 > 100 µM | NCI-H522 > 100 µM | OVCAR-4 > 100 µM | SW-620 > 100 µM | MOLT-4 42.7 µM | HCT-116 98.9 µM | NCI-H460 > 100 µM | NCI/ADR-RES > 100 µM | UACC-257 > 100 µM | A498 > 100 µM | UO-31 > 100 µM | NCI-H226 60 µM | OVCAR-8 > 100 µM | ACHN > 100 µM

C[n+]1cn(CC(=O)c2ccccc2)c(C(N)=O)c1N
inactive: SF-539 > 100 µM | EKVX > 100 µM | 786-0 43.7 µM | NCI-H23 > 100 µM | U-251 94.6 µM | NCI-H522 77.6 µM | OVCAR-4 > 100 µM | SW-620 11 µM | MOLT-4 > 100 µM | HCT-116 24.2 µM | NCI-H460 > 100 µM | UACC-257 > 100 µM | A498 > 100 µM | UO-31 > 100 µM | NCI-H226 > 100 µM | OVCAR-8 > 100 µM | ACHN > 100 µM

Cc1ccccc1C(=O)c1cc(O)ccc1O
inactive: SF-539 > 100 µM | EKVX > 100 µM | 786-0 > 100 µM | NCI-H23 65 µM | U-251 50.7 µM | NCI-H522 27.2 µM | OVCAR-4 > 100 µM | SW-620 37.1 µM | MOLT-4 > 100 µM | HCT-116 > 100 µM | NCI-H460 85.9 µM | UACC-257 > 100 µM | A498 > 100 µM | UO-31 > 100 µM | NCI-H226 > 100 µM | OVCAR-8 > 100 µM | ACHN > 100 µM

CN(C)C(=S)/N=c1\ss/c(=N\C(=S)N(C)C)n1-c1cccc(Cl)c1
inactive: SF-539 > 100 µM | EKVX > 100 µM | 786-0 > 100 µM | NCI-H23 > 100 µM | U-251 > 100 µM | NCI-H522 > 100 µM | OVCAR-4 > 100 µM | SW-620 > 100 µM | MOLT-4 > 100 µM | HCT-116 > 100 µM | NCI-H460 > 100 µM | UACC-257 > 100 µM | A498 > 100 µM | UO-31 > 100 µM | NCI-H226 > 100 µM | OVCAR-8 > 100 µM | ACHN > 100 µM

O=C(C#Cc1ccccc1)N1c2ccccc2CC1c1c[nH]c2ccccc12 (stereo not given)
inactive: SF-539 13 µM | EKVX 15.4 µM | 786-0 16.2 µM | NCI-H23 12.6 µM | U-251 17.5 µM | NCI-H522 11 µM | OVCAR-4 26.3 µM | SW-620 15.3 µM | MOLT-4 9.02 µM | HCT-116 13.4 µM | NCI-H460 18.6 µM | UACC-257 19.1 µM | A498 28.9 µM | UO-31 23.1 µM | NCI-H226 9.79 µM | OVCAR-8 11.6 µM | ACHN 19.7 µM
